In US8835510B2, “Methods and compositions for treating conditions mediated by oxidative stress or electrophilic environmental toxins” (priority 2010, dated 2014):
“And” between values parts separate entries of the source, which are not always exact repeats. Identical values can stand only once. “Also recorded” adds a separate entry of the source.

How the values were obtained:
[1] = test system: acrolein-exposed striatal synaptosomes; assay: Protection against acrolein-induced inhibition of 3H-dopamine transport in striatal synaptosomes; format: cell-based, rat; conditions: for change in acrolein IC50 for inhibition of DA transport: test compound 500 μM, Krebs buffer pH 7.4, 30° C., 15 mins (FIG. 5A)
[2] = test system: acrolein-exposed striatal synaptosomes; assay: Protection against acrolein-induced thiol loss in striatal synaptosomes (DTNB); format: cell-based, rat; conditions: for cytoprotection / thiol protection in acrolein-exposed synaptosomes: pH 7.4, test compound 500 μM
Procedure: Therefore, as an investigation of possible cytoprotection, a determination was made of the relative abilities of the above 1,3-dicarbonyl structural series to prevent thiol loss in acrolein-exposed rat striatal synaptosomes (isolated CNS nerve terminals). Synaptosomes were prepared according to the methods of LoPachin et al.^52 and were exposed (Krebs buffer, pH 7.4, 30° C.×15 mins) to graded concentrations of acrolein (1-1000 μM) alone or in combination with a 1,3-dicarbonyl derivative or control compound (500 μM). […] The respective IC50s and 95% confidence intervals were calculated by the […] (Prism 3.0, GraphPad Software). The selected 1,3-dicarbonyls are carbanion nucleophiles and, therefore, the analyses also included NAC as a representative thiolate-type nucleophile. Studies were conducted to assess the in vitro toxicity of the selected enol derivatives (FIG. 4).
Studies were carried out using isolated brain nerve terminals (striatal synaptosomes) exposed to acrolein as a model of electrophile-induced toxicity, as illustrated in FIG. 5A-5B. Acrolein is a soft electrophile that inhibits protein function by forming adducts with soft nucleophilic cysteine residues and thereby causes synaptosomal toxicity.

[3] = Kinetic assay of acrolein-induced N-acetyl cysteine (NAC) sulfhydryl loss (DTNB method); conditions: for rate of sulfhydryl loss (mean rate±SE): NAC + acrolein 150 μM + test compound 50 μM co-incubated, Krebs buffer pH 7.4, 30° C.; for rate of acrolein-induced sulfhydryl (NAC) loss (mean rate±95% confidence interval): pH 7.4; for sulfhydryl (NAC) protection, pre-incubation: acrolein pre-incubated with test compound, NAC added one hour later; for ability to slow acrolein-induced NAC thiol loss: co-incubation, test compound 50 μM, pH 7.4 (FIG. 3A)
Source text: As an index of cytoprotection, these studies focused on the abilities of 1,3-dicarbonyl compounds to prevent electrophile-induced loss of protein and non-protein sulfhydryl groups. This experimental focus is based on substantial evidence that soft electrophiles, like acrolein, produce toxicity by forming Michael-type adducts with soft nucleophilic thiolate (anionic sulfhydryl) groups on functionally critical proteins^9, 17, 22, 56, 57 (reviewed in^28, 58, 62, 77, 94). […] To test this hypothesis, a determination was made of the ability of AcAc and other structurally related enol analogs to prevent sulfhydryl (nucleophile) adduction by acrolein (electrophile)^56. […] Free sulfhydryl concentrations were determined over time (up to 15 mins) by the DTNB method of LoPachin et al.^52.
Therefore, as a kinetic index of competitive thiol protection by enolate sequestration, the relative in vitro abilities of 1,3-dicarbonyl compounds and phloretin to slow the rate of acrolein-induced sulfhydryl loss were measured.

MN9D cells [4] = assay: Cell viability (trypan blue) in acrolein-exposed MN9D cultures; conditions: for protection against acrolein-induced cell death (words): pre-incubation 60 minutes, 750 μM each (phloretin 100 μM); for increase in acrolein LC50: test compound 750 μM pre-incubation; for concentration dependence of protection against acrolein: graded concentrations: 2-ACP 100-750 μM, AcAc 250-1000 μM (range-finding 50-1000 μM)
Procedure: (§1) As a more complex biological model, a determination was made of the relative abilities of the 1,3-dicarbonyls to protect MN9D cells, a dopaminergic cell line, from acrolein- (FIG. 6) or hydrogen peroxide (H2O2)-induced cell death (FIG. 7). Briefly, two days after plating, cells were incubated with AcAc (750 μM) for one hr followed by exposure to graded concentrations of either acrolein (0.50-150 μM×24 hrs) or H2O2 (50-750 μM×24 hrs). Cell viability was determined by trypan blue (0.1%) exclusion. Living cells were counted in a hemocytometer and total cells per dish were calculated.

[5] = pKa and enolate ionization of enol compounds; format: physicochemical; conditions: for fraction in the anionic enolate state: pH 7.4 (neutral / cellular pH); for increase in enolate concentration: pH 9.0 relative to pH 7.4
MN9D cells [6] = assay: Cell viability (trypan blue) in H2O2-exposed MN9D cultures; conditions: for protection against H2O2-induced cell death: test compound 750 μM (phloretin 100 μM); for protection against H2O2-induced cytotoxicity: FIG. 7; for concentration dependence of protection against H2O2: graded concentrations: 2-ACP 250-750 μM, AcAc 500-1500 μM (range-finding 50-1000 μM)
Procedure: as §1
This system represents a more complete model of oxidative stress since the hydroxyl radical formed from intracellular H2O2 during the Fenton reaction, subsequently mediates the generation of toxic aldehyde by-products such as acrolein and 4-hydroxy-2-nonenal (HNE).

[7] = Ferrous ion chelation (method of Dairam et al.); conditions: for EC50: read-out: concentration at which 50% Fe^2+ chelation occurs
[8] = Free radical scavenging (DPPH absorbance method of Ak and Gulcin)
Procedure: The relative abilities of selected 1,3-dicarbonyl compounds to scavenge free radicals were determined using the spectrophotometric method of Ak and Gulcin (2008)^4 that measures changes in the absorbance of the 2,2-diphenyl-1-picrylhydrazyl radical.

whole animal = conditions: cited from earlier work
Aqueous solubility = format: physicochemical
CCl4-intoxicated rats = assay: Protection from carbon tetrachloride-induced hepatotoxicity in rats; format: in vivo, rat; conditions: 2-ACP 200 mg/kg/d by gavage, six daily doses, then CCl4 30 μl ip; plasma 24 hours after
Procedure: (§2) This study was carried out in accordance with the NIH Guide for Care and Use of Laboratory Animals and approved by the Montefiore Medical Center Animal Care and Use Committee. Adult male rats (Sprague-Dawley, Taconic Farms, Germantown, N.Y., USA) were used in this study. Rats were housed individually in polycarbonate boxes, and drinking water and Purina Rodent Laboratory Chow (Purina Mills, Inc., St. Louis, Mo., USA) were available ad libitum.
(§3) Male rats (200-250 gm) were injected (i.p.) with 2-ACP at three different daily dose-rates: 100, 200 or 300 mg/kg/d×14 days. Rats were observed 3 times per week for signs of developing toxicity; i.e., body weight loss, general appearance, water/food consumption, gait performance and home cage behavior. […] As a model of in vivo oxidative stress, rats (200-250 gm) were administered 30 μl of carbon tetrachloride (CCl4) in corn oil (ip) following six daily doses of 2-ACP (200 mg/kg/d) by gavage. […] These findings indicate that 2-ACP decreased the degree of hepatic cell death caused by CCl4.

Male rats = assay: 2-ACP toxicity in rats (14 day i.p. dosing); format: in vivo, rat; conditions: i.p. 100, 200 or 300 mg/kg/d×14 days
Procedure: as §2, §3

[9] = co-incubation with test compound 500 μM

Row | SMILES | rate of sulfhydryl loss (mean rate±SE) [3] [nmol SH sec^−1] | protection against acrolein-induced cell death (words) (MN9D cells [4]) | change in acrolein IC50 for inhibition of DA transport [1] | sulfhydryl (NAC) protection, pre-incubation [3] | pKa [5] | protection against H2O2-induced cell death (MN9D cells [6]) | fraction in the anionic enolate state [5] | also measured
1 | C=CC=O [acrolein] | −78.4±7 | – | – | – | – | – | – | IC50 ([1]; Rattus norvegicus, acrolein alone, 0.001-1 mM, read-out: IC50 of acrolein for decrease in membrane 3H-DA transport): 66 µM; IC50 ([2]; Rattus norvegicus, acrolein alone, 0.001-1 mM, read-out: IC50 of acrolein for loss of synaptosomal sulfhydryl groups): 74 µM; rate of acrolein-induced sulfhydryl (NAC) loss (mean rate±95% confidence interval) [3]: -78.4 ± 6.2 nmol/s
2 | CC1(C)OC(=O)CC(=O)O1 [Meld. Acid, 2,2-dimethyl-1,3-dioxane-4,6-dione] | – | did not provide protection | largest increases in the acrolein IC50 | significant thiol protection | 4.8 | – | – | protection against acrolein-induced cell death in serum-free medium (MN9D cells [4]): substantial increases in the acrolein LC50
3 | CC(=O)CCC(C)=O [HD, 2,5-hexanedione, reference compound] | – | neither DEM nor HD were effective; also recorded: slight increase in LC50 | Neither DEM nor HD significantly affected | did not affect the rate of acrolein-induced thiol loss | – | ineffective | – | ability to slow acrolein-induced NAC thiol loss [3]: not effective
4 | CCOC(=O)CC(=O)OCC [DEM, diethyl malonate] | – | neither DEM nor HD were effective | Neither DEM nor HD significantly affected | – | 12.9 | ineffective | < 0.1% | cytoprotection / thiol protection in acrolein-exposed synaptosomes [2]: not cytoprotective; increase in enolate concentration [5]: ~100 fold
5 | CC(=O)CC(=O)C(F)(F)F [TFPD, 1,1,1,-trifluoro-2,4-pentanedione] | −52.1±5 | significantly increased the acrolein LC50 | more modest | modestly effective | – | modestly effective | > 99% and 99% | increase in acrolein LC50 (MN9D cells [4]): ~7 fold; cytoprotection / thiol protection in acrolein-exposed synaptosomes [2]: some thiol protection; thiol protection against acrolein at elevated pH ([3]; pH 9.0): none was observed; also recorded: did not increase; protection against H2O2-induced cytotoxicity (MN9D cells [6]): 3 fold
6 | CC1(C)CC(=O)CC(=O)C1 [DMD, 5,5-Dimethyl-1,3-cyclohexanedione] | −2.4±0.3 | did not provide protection | largest increases in the acrolein IC50 | significant thiol protection | 5.3 | – | 99% | protection against acrolein-induced cell death in serum-free medium (MN9D cells [4]): substantial increases in the acrolein LC50; cytoprotection / thiol protection in acrolein-exposed synaptosomes [2]: powerful cytoprotectant
7 | O=C(O)CN(CCN(CC(=O)O)CC(=O)O)CC(=O)O [EDTA] | – | – | – | – | – | – | – | EC50 [7]: 31 µM
8 | CC(=O)N[C@@H](CS)C(=O)O [NAC, N-acetyl cysteine, reference compound] | – | nearly complete protection; also recorded: completely prevented cell death | largest increases in the acrolein IC50 | – | – | significantly less efficacious; also recorded: less protective | – | Fe^2+ chelating activity [7]: little, if any, Fe^2+ chelating activity; DPPH radical scavenging [8]: modest free radical scavenging
9 | CC(=O)CC(C)=O [AcAc, acetylacetone] | −24.9±5 | significantly increased the acrolein LC50 | largest increases in the acrolein IC50 | modestly effective | 8.9 | modestly effective | – | EC50 [7]: 909 µM; LD50 (whole animal): 175 mg/kg; concentration dependence of protection against acrolein (MN9D cells [4]): concentration-dependent protection; also recorded: significant increases in the LC50; increase in acrolein LC50 (MN9D cells [4]): ~7 fold; rate of acrolein-induced sulfhydryl (NAC) loss (mean rate±95% confidence interval) [3]: -24.9 ± 3.6 nmol/s; rate of acrolein-induced sulfhydryl (NAC) loss ([3]; pH 9.0): -2.43 ± 2.2 nmol/s; thiol protection against acrolein at elevated pH ([3]; pH 9.0): substantially elevated; also recorded: completely protective; increase in enolate concentration [5]: ~100 fold; protection against H2O2-induced cytotoxicity (MN9D cells [6]): 3 fold; concentration dependence of protection against H2O2 (MN9D cells [6]): concentration-dependent protection; also recorded: significant increases in the LC50 of H2O2
10 | CC(=O)C(C)C(C)=O [MPD, 3-methyl-2,4-pentanedione] | – | – | – | – | 10.8 | – | – | ability to slow acrolein-induced NAC thiol loss [3]: minimally protective
11 | COc1cc(/C=C/C(=O)CC(=O)/C=C/c2ccc(O)c(OC)c2)ccc1O [curcumin, reference compound] | – | – | – | – | 8 | – | – | water solubility (Aqueous solubility): insolubility in aqueous solutions
12 | CC(=O)C1CCCC1=O (stereo not drawn) [2-ACP, 2-acetylcyclopentanone] | – | completely prevented cell death | – | completely preserved | 7.8 | nearly complete protection | ~50% | EC50 [7]: 211 µM; reduction of plasma alanine transferase (ALT) relative to toxicant only (CCl4-intoxicated rats): 40%; reduction of plasma aspartate transferase (AST) relative to toxicant only (CCl4-intoxicated rats): 52%; DPPH scavenging rate, fold slower than curcumin ([8]; relative to curcumin): 30-40 fold; concentration dependence of protection against acrolein (MN9D cells [4]): significant increases in the LC50; increase in acrolein IC50 for 3H-DA transport inhibition [1, 9]: 15 fold; increase in acrolein IC50 for synaptosomal thiol loss [2, 9]: 15 fold; sulfhydryl (NAC) protection, co-incubation ([3]; all chemicals added simultaneously): complete sulfhydryl protection; water solubility (Aqueous solubility): water soluble; overt signs of toxicity (body weight loss, appearance, water/food consumption, gait, home cage behavior) (Male rats): did not cause overt signs of toxicity; concentration dependence of protection against H2O2 (MN9D cells [6]): significant increases in the LC50 of H2O2
13 | O=C1CCC(=O)C1 [CPD, 1,3-cyclopentanedione] | – | completely prevented cell death | – | modestly effective | – | ineffective | – | –
